In PMC6108829 (Environmental Health Perspectives, 2018):
Counter-ions that a name gives are not always drawn.

Tests used:
[1] = in vivo; cited from earlier work
[2] = design: method as in Dumont et al. 2011; details: third subject (oldest volunteer); ref Dumont et al. 2011; cited from earlier work
[3] = Glucuronidation kinetics in pooled human liver microsomes (HPLC-UV); details: human, pH 7.4
Procedure: (§1) Pooled human liver microsomes ( 20mg/mL ) and pooled human intestinal microsomes ( 20mg/mL ) were from BD Biosciences. We first placed the reaction mixtures for 30 min on ice and then incubated them for 5 min at 37°C. The addition of uridine 5'-diphospho-glucuronic acid (Sigma-Aldrich) to a final concentration of 5 mM started the reaction. For the enzyme reactions, we used a temperature of 37°C; the incubation times differed, subject to the BP and microsome type regarded (Table 1). We terminated the glucuronidation reactions with the addition of 10μL perchloric acid (Merck). In the following step, we put the samples on ice for 15 min, centrifuged at 16,000×g for 10 min, and analyzed the supernatants using HPLC-UV.
(§2) We conducted the HPLC-UV analysis on an Agilent 1,100 series HPLC system (Agilent Technologies). For this, we injected 10μL of each sample onto a Poroshell 120 EC-C18 column ( 4.6×100mm , 2.7μm , Agilent Technologies) maintained at 40°C. The mobile phases were 0.1% formic acid (A) and acetonitrile (B). The elution of different BPs consisted of a linear gradient (see Table 2). We further analyzed the results with the GraphPad Prism software (version 5.04; GraphPad Software Inc.,) and selected the most suitable kinetic model (Michaelis-Menten or substrate inhibition, Equations 3 and 4), based on the curve fitting and the shape of the Eadie-Hofstee plots (see Figure S2).
(§3) Michaelis-Menten equation: (3) v=vmax[S]/Km+[S]
(§4) Substrate inhibition equation: (4) v=vmax[S]/Km+[S](1+[S]/Ksi )

human liver microsomes = test: as above; details: for Hepatic glucuronidation vmax: in vitro value scaled with 32 mg protein/g liver, BPS: uncalibrated model; for glucuronidation compared with the other analogs: at lower, physiologically relevant substrate concentrations, small intestine and liver (Figure 3B)
Procedure: as §1, §2, §3, §4

[4] = Glucuronidation kinetics in pooled human intestinal microsomes (HPLC-UV); details: human, pooled human intestinal microsomes, pH 7.4
Procedure: as §1, §2, §3, §4

[5] = system: human intestinal microsomes; test: as above; details: for Glucuronidation in enterocytes vmax - used in basic model: scaled with 4.29 mg protein/kg BW; for Glucuronidation in enterocytes Ksi: substrate-inhibition kinetics
Procedure: as §1, §2, §3, §4

estrogen receptor = target: estrogen receptor; design: method as in Kitamura et al. 2005; details: ref Kitamura et al. 2005, cited from earlier work; for EC50: estrogenic potency
[6] = cited from earlier work; for pKa: ref SPARC 2011; for logPow: ref Choi and Lee 2017
[7] = Margin of exposure (MOE = EC50/Cmax) back-of-the-envelope calculation; design: species or system human
estrogen receptors = system: estrogen receptors; design: method as in Kitamura et al. 2005; Stossi et al. 2014; details: ref Kitamura et al. 2005; Stossi et al. 2014; cited from earlier work
[8] = mouse, in vivo; cited from earlier work
[9] = design: method as in Oh et al. (2018); details: ref Oh et al. (2018); cited from earlier work
[10] = EC50 (Kitamura et al. 2005)/highest Cmax of basic PBPK model (Table 9)

| SMILES | AUC, mean (range), measured [1] | Cmax [1] [nM] | Km [3] [µM] | Hepatic glucuronidation vmax (human liver microsomes) | Km [4] [µM] | Glucuronidation in enterocytes vmax - used in basic model [5] [nmol/h/g bw] | Glucuronidation in enterocytes Ksi [5] | EC50 (estrogen receptor) [µM] | pKa [6] | glucuronidation compared with the other analogs (human liver microsomes) | logPow [6] | other results |
| --- | --- | --- | --- | --- | --- | --- | --- | --- | --- | --- | --- | --- |
| CC(C)(c1ccc(O)cc1)c1ccc(O[C@@H]2O[C@H](C(=O)O)[C@@H](O)[C@H](O)[C@H]2O)cc1 [BPA-g, BPA glucuronide] | 6.66 (5.52–8.34) nM*h for 1.5 h | 6.48 |  |  |  |  |  |  |  |  |  |  |
| O=S(=O)(O)Oc1ccc(Cc2ccc(O)cc2)cc1 [BPF-s] |  |  |  |  |  |  |  |  |  |  |  | share as major metabolite [2]: 75% |
| Oc1ccc(Cc2ccc(O)cc2)cc1 [BPF, bisphenol F] |  |  | 17.9 | 3,600 nmol/h/g liver | 57 | 462 | 605,000 nM | 1 | ~7.6 |  |  |  |
| Oc1ccc(C(c2ccc(O)cc2)(C(F)(F)F)C(F)(F)F)cc1 [BPAF, bisphenol AF] |  |  |  | 5,660 nmol/h/g liver | 1.83 | 107 | 82,200 nM |  | ~9.2 | most effective | 2.8 to 4.8 | Km ([3]; pooled human liver microsomes): 4.21 µM; Hepatic glucuronidation Ksi (human liver microsomes; substrate-inhibition kinetics): 219,000 nM; MOE in serum of females of childbearing age ([7]; 2D-MC analysis, P95/P95): 1,860; MOE in gonads [7, 10]: 1,810; estrogenic potency, times higher than BPA (estrogen receptor; from EC50 values): 13 times; estrogenic potency, times higher than the potency of BPA (estrogen receptors): 7 to 13 times |
| CC(C)(c1ccc(O)cc1)c1ccc(OS(=O)(=O)O)cc1 [BPA-s, BPA sulfate] | 3.61 (2.60–4.52) nM*h for 1.5 h | 4.22 |  |  |  |  |  |  |  |  |  | share of metabolites present in plasma [8]: 0.5–4.8% |
| O=S(=O)(c1ccc(O)cc1)c1ccc(O)cc1 [BPS, bisphenol S] |  |  | 285 | 26,500 nmol/h/g liver | 354 | 563 | 711,000 nM | 1.1 | ~8.2 | least effective | 1.7–2.1 | MOE in serum [7, 10]: 2,440; half-life, times longer than the half-life of BPA [9]: 2.7 times |
